The experiment addresses T1, JAK3: Recombinant human kinase domain (810-1124) (Homo sapiens, UniProt P52333).
T1 construct: Recombinant human kinase domain (810-1124); made in house
The experiment is described as follows: Determination of IC50 of Janus Kinase (JAK) inhibition, radioactive 33P-ATP end-point assay, JAK3. Type of experiment: biochemical. The note with it: 0.1 nM JAK3, ATP 1.5 uM, peptide 50 uM, 20 minutes, room temperature; read-out: JAK3 Enzyme IC50. The protocol:
Determination of IC50 of Janus Kinase (JAK) inhibition:
Enzymes and peptide substrate used are described below:
JAK3: Recombinant human kinase domain (810-1124) made in house by Roche Palo Alto
Substrate: N-terminally biotinylated 14-mer peptide derived from activation loop of JAK1 with sequence of the peptide substrate: Biotin-KAIETDKEYYTVKD
Assay conditions used are described below:
Assay Buffer: JAK Kinase Buffer: 50 mM Hepes [pH 7.2], 10 mM MgCl2, 1 mM DTT, 1 mg/ml BSA. The assay is carried out in this buffer.
Assay Format: The kinase activity of all three JAK kinases is measured using a radioactive, end-point assay and with trace amounts of ^33P-ATP. The assays are carried out in 96-well polypropylene plates.
All concentrations are final in the reaction mixture and all incubations are carried at room temperature. Assay steps are described below:
1) Compounds are serially diluted in 100% DMSO typically at a 10× starting concentration of 1 mM. Final concentration of DMSO in the reaction is 10%.
2) Compounds are preincubated with enzyme (0.1 nM JAK3, 1 nM JAK2, 5 nM JAK1) for 10 minutes.
3) Reactions are initiated by the addition of a cocktail of the two substrates (ATP and peptide premixed in the JAK Kinase Buffer). In the JAK1/JAK2/JAK3 assays, ATP and the peptide are used at concentrations of 1.5 uM and 50 uM, respectively. The duration of the assay for JAK2 and JAK3 is 20 minutes. JAK1 assay is carried out for 45 minutes. With all three enzymes, reactions are terminated by the addition of 0.5M EDTA to a final concentration of 100 mM. 4) 25 ul of terminated reactions are transferred to 150 ul of a 7.5% (v/v) slurry of streptavidin-coated sepharose beads in MgCl2- and CaCl2-free 1× Phosphate Buffered Saline containing 50 mM of EDTA in 96-well, 1.2 um MultiScreen-BV filter plates. 5) After a 30-minute incubation, the beads are washed under vacuum with the following buffers:
a. 3 to 4 washes with 200 ul of 2M NaCl.
b. 3 to 4 washes with 200 ul of 2M NaCl plus 1% (v/v) phosphoric acid.
6) Washed plates are dried in a 60° C. oven for between 1 to 2 hours.
7) 70 ul of Microscint 20 scintillation fluid is added to each well of filter plates and after at least 30 minutes of incubation, radioactive counts are measured in a Perkin Elmer microplate scintillation counter.

Data on 17 compounds can be found in US8318764B2, “Macrocyclic inhibitors of JAK” (Roche Palo Alto LLC, priority 2009, dated 2012).

For orientation: IC50 means the point on the concentration scale where inhibition reaches its midpoint.

Molecules are shown by their SMILES.

T1 sequence (P52333 810-1124): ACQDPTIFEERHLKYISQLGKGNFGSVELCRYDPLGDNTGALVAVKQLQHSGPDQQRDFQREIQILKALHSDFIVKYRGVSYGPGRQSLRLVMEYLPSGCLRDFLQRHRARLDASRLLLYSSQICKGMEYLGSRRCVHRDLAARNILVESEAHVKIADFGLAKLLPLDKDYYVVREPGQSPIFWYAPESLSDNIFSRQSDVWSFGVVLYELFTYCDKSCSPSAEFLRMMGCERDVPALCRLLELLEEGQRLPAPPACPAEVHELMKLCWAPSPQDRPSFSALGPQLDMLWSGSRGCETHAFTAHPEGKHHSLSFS

For `CCC1(C)CCCCCCc2cccc(n2)Nc2n[nH]c3c2CN(C3)C1=O` (centres unmarked) [Compound I-1], the IC50 worked out at 915 nM.

Regarding `CC1CCCCC(C)(C)C(=O)N2Cc3[nH]nc(c3C2)Nc2cccc1n2` (centres unmarked) [Compound I-2], the IC50 is 795 nM.

In the case of `CC1(C)CCCCCc2cc(ccn2)Nc2n[nH]c3c2CN(C3)C1=O` [Compound I-3], the IC50 was greater than 10000 nM.

Regarding `CCC1(C)CCCCCc2cccc(n2)Nc2n[nH]c3c2CN(C3)C1=O` (centres unmarked) [Compound I-4], the IC50 was 280 nM.

Take `CCC1(C)CCCCOc2cccc(n2)Nc2n[nH]c3c2CN(C3)C1=O` (centres unmarked) [Compound I-5]: the IC50 was 530 nM.

As to `CC1(C)CCCCCc2cccc(n2)Nc2n[nH]c3c2CN(C3)C1=O` [Compound I-6], the IC50 amounted to 502 nM.

`CC1(C)CCCCc2cccc(n2)Nc2n[nH]c3c2CN(C3)C1=O` [Compound I-7]: the concentration for half-maximal inhibition (IC50) stood at 811 nM.

On to `CC1(C)CCCCOc2cccc(n2)Nc2n[nH]c3c2CN(C3)C1=O` [Compound I-8], for which the IC50 is 1040 nM.

On to `CC1(C)CCCOc2cccc(n2)Nc2n[nH]c3c2CN(C3)C1=O` [Compound I-9], for which the IC50 was greater than 3000 nM.

Take `CC1(C)CCCCCOc2cccc(n2)Nc2n[nH]c3c2CN(C3)C1=O` [Compound I-10]: the IC50 stood at 343 nM.

Take `CC1CCc2cccc(n2)Nc2n[nH]c3c2CN(C3)C(=O)C(C)(C)CC1` (centres unmarked) [Compound I-11]: the IC50 was 487 nM.

On to `CC12CCN(CCCCc3cccc(n3)Nc3n[nH]c4c3CN(C4)C1=O)C2` (centres unmarked) [Compound I-12], for which the IC50 worked out at 42.6 nM.

Turning to `CC12CCN(CCCc3cccc(n3)Nc3n[nH]c4c3CN(C4)C1=O)C2` (centres unmarked) [Compound I-13], the IC50 stood at 92.8 nM.

For `O=C1N2Cc3[nH]nc(c3C2)Nc2cccc(n2)CCCCCC12CCCCC2` [Compound I-14], the IC50 was 4210 nM.

Take `O=C1N2Cc3[nH]nc(c3C2)Nc2cccc(n2)CCCCCC12CCCC2` [Compound I-15]: the half-maximal inhibitory concentration (IC50) stood at 444 nM.

For `CC1(c2ccccc2)CCCCCc2cccc(n2)Nc2n[nH]c3c2CN(C3)C1=O` (centres unmarked) [Compound I-16], the IC50 is greater than 1000 nM.

On to `O=C1N2Cc3[nH]nc(c3C2)Nc2cccc(n2)CCCCCC12CCOCC2` [Compound I-17], for which the IC50 was greater than 1000 nM.
